What was measured:
Assay in all cases: Cell proliferation assay (Alamar Blue)
Assay type in all cases: cell-based
AN3CA = AN3CA tumor cell line, 6 days culture
How it was run: (§1)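 Antiproliferative IC50 determined in a 6-day assay with AlamarBlue fluorescence read-out (Ex 560, Em 590 nm). Top test concentration was 100 or 30 μM according to solubility.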

Alexander cells = Alexander cells liver cancer cell line, 6 days culture
How it was run: as §1

CCRF-CEM = CCRF-CEM tumor cell line, 6 days culture
How it was run: as §1

DLD1 = DLD1 tumor cell line, 6 days culture
How it was run: as §1

DU145 = DU145 tumor cell line, 6 days culture
How it was run: as §1

HCCLM3 = HCCLM3 tumor cell line, 6 days culture
How it was run: as §1

HEPG2 = HEPG2 liver cancer cell line, 6 days culture
How it was run: as §1

HLE = HLE liver cancer cell line, 6 days culture
How it was run: as §1

HT55 = HT55 tumor cell line, 6 days culture
How it was run: as §1

HUH1 = HUH1 liver cancer cell line, 6 days culture
How it was run: as §1

HUH7 = HUH7 liver cancer cell line, 6 days culture
How it was run: as §1

Hep3B2.1-7 = Hep3B2.1-7 liver cancer cell line, 6 days culture
How it was run: as §1

HuTu80 = HuTu80 tumor cell line, 6 days culture
How it was run: as §1

JHH7 = JHH7 liver cancer cell line, 6 days culture
How it was run: as §1

K562 = K562 tumor cell line, 6 days culture
How it was run: as §1

KASUMI-1 = KASUMI-1 (leukemia cells), 6 days culture
How it was run: as §1

LC-2-ad = LC-2-ad tumor cell line, 6 days culture
How it was run: as §1

MDA-MB-231 = MDA-MB-231 tumor cell line, 6 days culture
How it was run: as §1

MFM-223 = MFM-223 tumor cell line, 6 days culture
How it was run: as §1

NCI-H1648 = NCI-H1648 tumor cell line, 6 days culture
How it was run: as §1

NCI-H2170 = NCI-H2170 tumor cell line, 6 days culture
How it was run: as §1

NCI-H526 = NCI-H526 tumor cell line, 6 days culture
How it was run: as §1

NCI-H661 = NCI-H661 tumor cell line, 6 days culture
How it was run: as §1

SNU739 = SNU739 liver cancer cell line, 6 days culture
How it was run: as §1

SNU886 = SNU886 liver cancer cell line, 6 days culture
How it was run: as §1

SW620 = SW620 tumor cell line, 6 days culture
How it was run: as §1

T.T = T.T tumor cell line, 6 days culture
How it was run: as §1

Structure (SMILES): Cc1ccc(F)c(NC(=O)Nc2ccc(-c3cccc4[nH]nc(NC(=O)CCCCCNC(=O)C[C@H](N)C(=O)N[C@@H](CCC(=O)N[C@@H](CCC(=O)N[C@@H](CCC(=O)N[C@@H](CCC(=O)O)C(=O)O)C(=O)O)C(=O)O)C(=O)O)c34)cc2)c1 [Compound 5]
- IC50 (AN3CA; Homo sapiens, AN3-CA, 144 h): 41.4 µM
- IC50 (Alexander cells; 144 h): > 100 µM
- IC50 (CCRF-CEM; Homo sapiens, 144 h): > 100 µM
- IC50 (DLD1; Homo sapiens, DLD-1, 144 h): > 100 µM
- IC50 (DU145; Homo sapiens, DU-145, 144 h): > 100 µM
- IC50 (HCCLM3; Homo sapiens, 144 h): > 100 µM
- IC50 (HEPG2; Homo sapiens, 144 h): 72.2 µM
- IC50 (HLE; Homo sapiens, 144 h): > 100 µM
- IC50 (HT55; Homo sapiens, 144 h): > 100 µM
- IC50 (HUH1; Homo sapiens, HuH-1, 144 h): > 100 µM
- IC50 (HUH7; Homo sapiens, Huh-7, 144 h): > 100 µM
- IC50 (Hep3B2.1-7; 144 h): > 100 µM
- IC50 (HuTu80; Homo sapiens, 144 h): > 100 µM
- IC50 (JHH7; 144 h): > 100 µM
- IC50 (K562; Homo sapiens, 144 h): > 100 µM
- IC50 (KASUMI-1; Homo sapiens, 144 h): 4.26 µM
- IC50 (LC-2-ad; Homo sapiens, 144 h): > 100 µM
- IC50 (MDA-MB-231; Homo sapiens, 144 h): > 100 µM
- IC50 (MFM-223; Homo sapiens, 144 h): > 100 µM
- IC50 (NCI-H1648; Homo sapiens, 144 h): > 100 µM
- IC50 (NCI-H2170; Homo sapiens, 144 h): > 100 µM
- IC50 (NCI-H526; Homo sapiens, 144 h): > 100 µM
- IC50 (NCI-H661; Homo sapiens, 144 h): > 100 µM
- IC50 (SNU739; SNU-739, 144 h): > 100 µM
- IC50 (SNU886; SNU-886, 144 h): > 100 µM
- IC50 (SW620; Homo sapiens, SW-620, 144 h): > 100 µM
- IC50 (T.T; Homo sapiens, TT, 144 h): > 100 µM

Structure (SMILES): Cc1ccc(F)c(NC(=O)Nc2ccc(-c3cccc4[nH]nc(NC(=O)CCCCCNC(=O)C[C@H](N)C(=O)N[C@@H](CCC(=O)O)C(=O)O)c34)cc2)c1 [Compound 4]
- IC50 (AN3CA): 24.9 µM
- IC50 (Alexander cells): > 100 µM
- IC50 (CCRF-CEM): > 100 µM
- IC50 (DLD1): > 100 µM
- IC50 (DU145): > 100 µM
- IC50 (HCCLM3): > 100 µM
- IC50 (HEPG2): 54.3 µM
- IC50 (HLE): > 100 µM
- IC50 (HT55): > 100 µM
- IC50 (HUH1): > 100 µM
- IC50 (HUH7): > 100 µM
- IC50 (Hep3B2.1-7): > 100 µM
- IC50 (HuTu80): 75.4 µM
- IC50 (JHH7): > 100 µM
- IC50 (K562): > 100 µM
- IC50 (KASUMI-1): 1.53 µM
- IC50 (LC-2-ad): > 100 µM
- IC50 (MDA-MB-231): > 100 µM
- IC50 (MFM-223): > 100 µM
- IC50 (NCI-H1648): > 100 µM
- IC50 (NCI-H2170): > 100 µM
- IC50 (NCI-H526): > 100 µM
- IC50 (NCI-H661): > 100 µM
- IC50 (SNU739): > 100 µM
- IC50 (SNU886): > 100 µM
- IC50 (SW620): > 100 µM
- IC50 (T.T): > 100 µM

— patent US11712434B2, “Compound having anti-cancer effect, and preparation method therefor and use thereof” (3D MEDICINES (BEIJING) CO., LTD., priority 2016, dated 2023)
